From PMC12459314, “Subcutaneous administration of a novel TRPM8 antagonist reverses cold hypersensitivity while attenuating the drop in core body temperature” (British journal of pharmacology, 2024)
Values joined by “and” are separate entries in the source; they are usually repeats but may differ in a detail not shown here. Identical values can stand only once.

Experiments:
[1] = Core body temperature and home cage activity by radiotelemetry (s.c., i.p.); format: in vivo, mouse
Experimental: Male and female C57Bl6J (Jackson Laboratories, Bar Harbor, USA, 8–12 weeks of age, 4 M:3F) were anaesthetised with isoflurane (2%–3% in 100% oxygen), and an HDX11 telemetry unit (Data Sciences) was inserted into the peritoneal cavity through a ventral midline incision. Animals were treated with buprenex (0.05 mg·kg^−1, s.c.every 8 h for 72 h) and enrofloxacin (2 mg·kg^−1, s.c.) and single-housed in a reverse light–dark cycle room (lights off 10 AM–10 PM). Mice were handled every day to acclimatise to injections, and experiments began 1 week later. All injections were performed between 1 and 2 PM. […] Body temperature was averaged into 5-min bins, whereas activity data were summed for the 5-min bin.

[2] = ref Journigan et al, 2020; cited from earlier work
human TRPM8 = tested on: human TRPM8; set-up: method as in Journigan et al., 2020; details: ref Journigan et al., 2020, cited from earlier work
oxaliplatin-treated mice = assay: Oxaliplatin-induced cold hyperalgesia, cold-plantar test; format: in vivo, mouse; details: for reversal of cold hypersensitivity (withdrawal latency) / increase in latency (AUC) compared to baseline: oxaliplatin group; for influence on oxaliplatin-induced cold hypersensitivity: 30 mg·kg−1 alone
Experimental: Male and female C57 BL/6J mice from Taconic Labs were randomized by sex and cage to oxaliplatin or vehicle groups. Mice were weighed and injected intraperitoneally (i.p.) with either oxaliplatin (3 mg·kg^−1), or vehicle (5% dextrose) once per day every day for five consecutive days, followed by five days off, and then by a second round of once per day for five more days. Therefore, mice received a total of 10 injections for a total of 30 mg·kg^−1. The average weight of the females was 18 g while of the males was 20 g. Consequently, the females received an average of 540 and the males 600 μg in total. Behavioural testing was started after the second round of oxaliplatin/vehicle administration. The cold-plantar test was used to assess changes in cold sensitivity. A 3 ml syringe barrel filled with powdered dry ice was used as the stimulus. The dry ice is placed on the glass (borosilicate glass; thickness, 1/8 in. (3.17 mm); temperature, 75°F (24°C), measured with a calibrated IR temperature probe) beneath the hindpaw and the latency to withdraw was determined ([Yilmaz et al., 2017]). The baseline withdrawal latency was determined from the mean of three stimulus applications (at an inter-stimulus interval of ~5 min), while that at each time interval after the administration of a test agent was again the mean of three stimulus applications bracketing the time point in question (i.e., 5 min before, at the time point, and 5 min after). Mice in the two groups defined by oxaliplatin treatment were subsequently randomized to the order of treatment (with the TRPM8 antagonist VBJ103, or vehicle control). VBJ103 and vehicle solutions were administered subcutaneously (s.c.) at doses of 3, 10 and 30 mg·kg^−1. Mice were tested every other day over 7 days so that each mouse received all four injections (vehicle and three doses of VBJ103). In a second cohort of male (n = 8) and female (n = 8) mice, all mice were treated with oxaliplatin as described above, and then randomized to the order of treatment with vehicle, VBJ103 (30 mg·kg^−1) alone, the TRPA1 antagonist, HC-030031 (200 mg·kg^−1) alone, or the combination of VBJ103 (30 mg·kg^−1) and HC-030031 (200 mg·kg^−1). A third cohort of male (n = 7) and female (n = 8) mice was also treated with oxaliplatin as described above. […] All test agents in both follow-up cohorts were again administered in a volume of 5 ml·kg^−1. Mice in both follow-up cohorts were again tested every other day over a period of 6 days. Finally, a fourth cohort of male (n = 4) and female (n = 4) mice was used to confirm that 200 mg·kg^−1 HC-030031 was sufficient to block TRPA1. For this experiment, mice were randomized to the order of treatment with vehicle or HC-030031 ([…]).

[3] = set-up: method as in Journigan et al., 2020; details: intraplantar administration; ref Journigan et al., 2020; cited from earlier work
[4] = Partition coefficient (logD), shake flask method; format: physicochemical; details: n-octanol / pH 7.4 phosphate buffer, pH 7.4
Experimental: The partition coefficient (logD) at pH 7.4 of VBJ103 was determined using the shake flask method by Absorption Systems (Exton, PA, USA). The buffer was prepared by combining 50 ml of 0.2-M solution of KH2PO4 with 150 ml of dH2O and then adjusting to pH 7.4 with 10-N NaOH. In a single incubation, 15 μl of a 10-mM DMSO solution of each test article was added to test tubes which contained 0.75 ml of n-octanol and 0.75 ml of pH 7.4 phosphate buffer. Testosterone was also introduced to each tube as an internal control, also at a dosing concentration of 100 μM. These samples were gently mixed on a benchtop rotator for 1 h at room temperature. The tubes were then removed from the rotator, and the aqueous and organic phases were allowed to separate for 1 h. An aliquot of the organic layer was taken and diluted 200-fold into a mixture of 1:1 buffer: acetonitrile (ACN). An aliquot of the aqueous layer was taken and diluted 2-fold, 10-fold and 200-fold into a mixture of 1:1 buffer: ACN. All samples were assayed by LC–MS/MS on a Thermo BDS Hypersil C18 column (30 × 2.1 mm, 3 μm) using electrospray ionization, as previously reported ([Journigan et al., 2020]).

With `O=C(NC1CCC2(CCCC2)CC1)c1ccc(-c2ccccc2)cc1` [VBJ103, N-(Spiro[4.5]decan-8-yl)-[1,1′-biphenyl]-4-carboxamide] the “drop in CBT versus vehicle” value ([1]; 3 mg·kg−1 i.p.) was “not different”, the “time for CBT to return to baseline values” (“time for CBT to return” below) ([1]; 3 mg·kg−1 s.c.) was 223 ± 25 min and the “time for CBT to return” value ([1]; 10 mg·kg−1 s.c.) was 262 ± 48 min. The “time for CBT to return” value ([1]; 30 mg·kg−1 s.c.) was 380 ± 59 min, the “change in home cage activity” value ([1]; 3, 10 and 30 mg·kg−1 s.c.) was “without any significant change” and the “fall in CBT” value ([1]; 3, 10 and 30 mg·kg−1 s.c., over 180 min) was 1–2 °C and 2 °C. For the same compound, the “change in home cage activity” value ([1]; 3, 10 or 30 mg·kg−1 i.p.) was “no detectable change”, the “fall in CBT” value ([1]; 3, 10 or 30 mg·kg−1 i.p.) was “dose-dependent fall” and the “time of peak fall in CBT” value ([1]; 3, 10 or 30 mg·kg−1 i.p.) was at most 60 min. For the same compound, the “drop in CBT versus 3 mg·kg−1 and vehicle” value ([1]; 10 and 30 mg·kg−1 i.p.) was “significantly greater”, the “CBT or home cage activity compared to vehicle” value ([1]; 100 and 300 mg·kg−1 s.c.) was “did not alter” and the “Mouse Liver microsomes, T1/2” value [2] was 30 min. The IC50 (human TRPM8; against menthol-stimulated currents) was 64 ± 2 nM, the “selectivity for human TRPM8 versus TRPA1 and TRPV1” value (human TRPM8; heterologously expressed channels) was ~ 10 fold and the “reversal of cold hypersensitivity (withdrawal latency)” value (“reversal of cold hypersensitivity” below) (oxaliplatin-treated mice; 3 mg·kg−1 s.c., at 2 h) was “significant reversals in hypersensitivity”. For the same compound, the “reversal of cold hypersensitivity” value (oxaliplatin-treated mice; 10 mg·kg−1 s.c., at 1 and 2 h) was “significant reversals in hypersensitivity”, the “increase in latency (AUC) compared to baseline” value (oxaliplatin-treated mice; 10 mg·kg−1 s.c.) was “significant” and the “influence on oxaliplatin-induced cold hypersensitivity” value (oxaliplatin-treated mice; second cohort, vehicle 0.5% Methocel) was “significantly attenuated oxaliplatin-induced cold hypersensitivity at all time points tested”. The “influence on oxaliplatin-induced cold hypersensitivity” value (oxaliplatin-treated mice; third cohort, vehicle 1:1 DMSO:water) was “significantly reversed”, the “reversal of cold hypersensitivity” value (oxaliplatin-treated mice; 30 mg·kg−1 s.c., at 0.5, 1 and 2 h) was “significant reversals in hypersensitivity” and the “increase in latency (AUC) compared to baseline” value (oxaliplatin-treated mice; 30 mg·kg−1 s.c.) was “significant”. For the same compound, the “influence on withdrawal latency to noxious cold stimuli” value (oxaliplatin-treated mice; VBJ103 30 mg·kg−1 in combination with GBR12909 20 mg·kg−1, third cohort) was “no detectable influence of GBR12909 on the withdrawal latency”, the “influence on withdrawal latency to noxious cold stimuli” value (oxaliplatin-treated mice; VBJ103 30 mg·kg−1 in combination with HC-030031 200 mg·kg−1, second cohort) was “not detectably different from the influence of VBJ103 alone” and the “baseline responses to noxious cold compared to vehicle” value (oxaliplatin-treated mice; mice not treated with oxaliplatin, 3 to 30 mg·kg−1 s.c.) was “not altered”. The “oxaliplatin-induced hypersensitivity to non-noxious cooling (acetone drop)” value [3] was “dose-dependently suppresses” and the logD at 1 h [4] was 3.21.
